Where two headings read alike, the source gives them in different places.
Experiments:
[1] = system: human HDAC (HeLa nuclear extract); experiment: HDAC activity screening, fluorescence-based, HeLa nuclear extract; type: biochemical
Description: HeLa nuclear extract was used as the enzyme source. […] The assay was performed in 96-well black microplates, and the total volume of the assay was set at 100 µl. […] The enzyme mixture was prepared by adding […] of the diluted enzyme (HeLa nuclear extract) to […] of HDAC buffer. From the enzyme mixture, 40 µl was taken and mixed with 10 µl of test compound (final concentration from 0.01 to 10 µM) or vehicle (control). The final mixture (50 µl) was added to each well which was then pre-incubated at 37 °C for 10 min. The HDAC reaction was started by adding 50 µl of HDAC substrate: […] The plate was incubated at 37 °C for 45 min. Trypsin stop solution (50 µl) was added to the well, and the plate was further incubated at 37 °C for 15 min to stop the reaction. The release of AMC was monitored by measuring the fluorescence at an excitation wavelength of 360 nm and an emission wavelength of 460 nm. Buffer and substrate alone served as blank.

human HDAC2 = human HDAC2 (Homo sapiens, UniProt Q92769); experiment: Isoform selectivity, recombinant HDAC isoforms; type: biochemical; conditions: single experiment assays
human HDAC2, sequence (Q92769 whole entry, canonical isoform): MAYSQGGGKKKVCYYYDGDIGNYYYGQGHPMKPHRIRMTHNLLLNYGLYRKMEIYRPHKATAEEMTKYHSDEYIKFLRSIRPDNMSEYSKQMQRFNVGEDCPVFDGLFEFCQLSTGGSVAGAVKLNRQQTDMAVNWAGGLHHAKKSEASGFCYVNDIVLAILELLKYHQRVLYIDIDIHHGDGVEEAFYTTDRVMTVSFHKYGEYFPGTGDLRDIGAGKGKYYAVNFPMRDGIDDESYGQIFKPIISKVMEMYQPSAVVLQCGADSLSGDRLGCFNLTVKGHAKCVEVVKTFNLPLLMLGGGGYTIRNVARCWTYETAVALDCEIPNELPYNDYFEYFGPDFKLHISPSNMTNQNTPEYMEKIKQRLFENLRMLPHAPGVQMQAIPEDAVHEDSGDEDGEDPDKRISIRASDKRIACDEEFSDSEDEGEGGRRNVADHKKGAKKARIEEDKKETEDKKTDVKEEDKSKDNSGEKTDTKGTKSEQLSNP
Description: Isoform selectivity was tested using recombinant HDAC isoforms (Biomol, USA).

male gametocytes = experiment: Male gametocyte functional viability assay; type: cell-based; conditions: Plasmodium falciparum
Description: Gametocyte cultures were tested for functional viability and maturity after 14 days. Testing functional viability was done by quantifying male gametocyte formation, which was carried out by withdrawing 200 μl of culture. Following this, culture was centrifuged, and the pellet was resuspended in 5 μl ookinete medium (RPMI medium with 25 mM HEPES, 50 mg/l hypoxanthine, 2 g/l sodium bicarbonate, 100 μM xanthurenic acid, and 10% A^+ human serum). The culture was observed under a microscope. […] The plates were then incubated at 37 °C for 24 h. Gamete formation was induced on day 15 and observed under the microscope following the method described by Ruecker et al.. The assay was performed using four independent biological replicates.

[2] = system: Plasmodium falciparum strain 3D7; experiment: In vitro killing profile; type: cell-based; conditions: 10 × IC50
Description: Briefly, the assay used limiting dilution technique to quantify the number of parasites viable after drug treatment. […] Parasites were treated for […]. The drugs used were renewed daily over the entire treatment period. Samples of parasites were taken from the treated culture every 24 h (0, for control of the initial number of parasites, 24, 48, 72, 96, 120 h’ time points). Following this, the procedure was carried out to wash out the drugs, and drug-free parasites were cultured in 96-well plates by adding fresh erythrocytes and new media (RPMI 1640 medium). Three-fold serial dilution was used with the abovementioned samples after removing the drug to quantify the number of viable parasites after treatment. Parasites were cultured in microtitre plates to allow all wells with viable parasites to render detectable parasitaemia. Four independent serial dilutions were carried out with each sample to correct experimental variations. Samples were examined after 21 days of culturing. Additional sampling was done after 28 days to confirm the growth/no growth.

Plasma protein binding [3] = type: in vitro ADME; conditions: rat, read-out: Plasma protein binding (% bound)
Plasma protein binding [4] = type: in vitro ADME; conditions: dog, read-out: Plasma protein binding (% bound)
Plasma protein binding [5] = type: in vitro ADME; conditions: monkey, read-out: Plasma protein binding (% bound)
Plasma protein binding [6] = type: in vitro ADME; conditions: human
Microsomal stability [7] = type: in vitro ADME, rat; conditions: RLM, Test Conc. 10 µM
Microsomal stability [8] = type: in vitro ADME, human; conditions: HLM, Test Conc. 10 µM
CYP1A2 = CYP1A2 (Homo sapiens, UniProt P05177); experiment: CYP inhibition; type: in vitro ADME
CYP1A2, sequence (P05177 whole entry, species assumed): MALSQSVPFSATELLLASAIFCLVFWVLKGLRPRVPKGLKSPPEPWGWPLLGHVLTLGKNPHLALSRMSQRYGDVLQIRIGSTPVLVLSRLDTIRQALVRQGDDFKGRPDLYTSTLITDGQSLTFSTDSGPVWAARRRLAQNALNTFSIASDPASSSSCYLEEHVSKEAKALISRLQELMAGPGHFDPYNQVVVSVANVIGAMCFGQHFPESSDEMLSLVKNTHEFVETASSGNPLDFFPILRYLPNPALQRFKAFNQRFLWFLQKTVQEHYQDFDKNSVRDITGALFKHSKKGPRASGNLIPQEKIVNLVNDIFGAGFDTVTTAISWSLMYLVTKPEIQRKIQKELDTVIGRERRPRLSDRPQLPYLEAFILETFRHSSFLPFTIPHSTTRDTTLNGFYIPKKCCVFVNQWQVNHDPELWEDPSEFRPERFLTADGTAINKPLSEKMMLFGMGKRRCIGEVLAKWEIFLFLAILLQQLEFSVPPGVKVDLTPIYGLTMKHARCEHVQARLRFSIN

CYP2C9 = CYP2C9 (Homo sapiens, UniProt P11712); experiment: CYP inhibition; type: in vitro ADME; conditions: read-out: CYP inhibition IC50, CYP 2C9
CYP2C9, sequence (P11712 whole entry, species assumed): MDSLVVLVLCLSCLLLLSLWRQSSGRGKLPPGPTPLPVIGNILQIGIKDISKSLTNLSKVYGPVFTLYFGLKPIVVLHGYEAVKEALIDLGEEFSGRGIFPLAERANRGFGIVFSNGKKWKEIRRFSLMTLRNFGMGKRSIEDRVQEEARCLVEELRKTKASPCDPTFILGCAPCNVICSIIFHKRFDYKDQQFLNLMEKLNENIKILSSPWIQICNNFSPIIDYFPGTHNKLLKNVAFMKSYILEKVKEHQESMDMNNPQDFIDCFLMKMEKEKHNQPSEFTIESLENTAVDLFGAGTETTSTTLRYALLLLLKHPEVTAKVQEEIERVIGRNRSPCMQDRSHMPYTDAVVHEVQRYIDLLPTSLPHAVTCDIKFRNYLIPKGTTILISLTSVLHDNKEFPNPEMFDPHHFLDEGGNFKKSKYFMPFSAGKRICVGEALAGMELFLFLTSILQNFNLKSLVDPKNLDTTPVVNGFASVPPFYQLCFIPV

HepG2 = experiment: Cytotoxicity; type: cell-based
Cytotoxicity = type: cell-based; conditions: human, THP-1 cells
THP-1 = experiment: Cytotoxicity; type: cell-based
[9] = system: P. falciparum Pf3D7^0087/N9; experiment: Therapeutic efficacy in SCID mouse model of human falciparum malaria; type: in vivo, Plasmodium falciparum in NODscidIL2Rγ^null mice; conditions: for Parasitaemia after 4 days of administration: intraperitoneally, vehicle control 8.43%; for Parasitaemia: oral, vehicle-treated group 7.69%, n = 2
Description: For the dose–response study, 50 mg of the compound was used in quintuplicate. Chloroquine (Sigma-Aldrich C6628) was used as the standard drug. The volume of 10 mL/kg was used for administration. Briefly, at day 0, in vitro cultures with approximately 2–5% parasitaemia were taken and diluted in culture medium to 2 × 10^7 parasitized erythrocytes per 0.1 ml. This suspension was injected iv into experimental groups and a control group of n = 2 mice. From day 3 to 6 days post-infection, the experimental groups were treated with a single daily dose by the oral (po) route. Other routes, such as intramuscular and subcutaneous, were also tested using the same protocol. The drug concentration was adjusted in a way to administer 10 ml/kg. […] At 7th day post-infection, 2 μl tail blood was taken. The haematocrit was determined by FACS and parasitaemia by microscopy on > 10,000 red blood cells.
The difference of the mean infection rate of the control group (= 100%) to the test group was calculated and expressed as per cent reduction. […] The results were expressed as a reduction of parasitaemia at day 7 in % as compared to the untreated control group. Values are expressed as mean ± SD.

In the case of `O=C(NO)c1ccc(Cn2cc(-c3ccc(CN4CCCC4)cc3)nn2)cc1` [FNDR-20123], the “Human HDAC % inhibition @1μM” value ([1]; 1μM) is reported as 95%, the IC50 ([1]; HeLa nuclear extract, read-out: Human HDAC IC50) is reported as 3 nM and the IC50 ([1]; single experiment assays, read-out: IC50 HeLa nuclear extract) is reported as 3 nM. For the same molecule, the IC50 (human HDAC2) was 29 nM, the IC50 (male gametocytes) was 190 nM and the “In vitro killing profile compared with standard drugs” value [2] was “better than atovaquone and comparable to pyrimethamine”. The fraction unbound (Plasma protein binding [3]) was 0.581, the fraction unbound (Plasma protein binding [4]) was > 0.8 and the fraction unbound (Plasma protein binding [5]) was > 0.8. The “Plasma protein binding (% bound)” value (Plasma protein binding [6]) was 57.30%, the fraction unbound (Plasma protein binding [6]; plasma, Human, read-out: Plasma protein binding (% bound) (converted)) was 0.43 and the “Microsomal stability (% remaining at 120 min)” value (Microsomal stability [7]) was 74.56%. For the same molecule, the remaining at 2 h, 10 µM (Microsomal stability [7]; rat, liver microsomes, read-out: Microsomal stability (% remaining at 120 min)) was > 75%, the “Microsomal stability (% remaining at 120 min)” value (Microsomal stability [8]) was 85.31% and the remaining at 2 h, 10 µM (Microsomal stability [8]; human, liver microsomes, read-out: Microsomal stability (% remaining at 120 min)) was > 75%. For the same molecule, the IC50 (CYP1A2) was > 60000 nM, the IC50 (CYP2C9) was > 60000 nM and the “Cytotoxicity to HepG-2 cell line” value (HepG2) was “negligible cytotoxicity”. For the same molecule, the “Cytotoxicity HepG2 (% @ 100 µM)” value (HepG2; 100 µM) was 12.6%, the IC50 (Cytotoxicity) was 114000 nM and the “Cytotoxicity to THP-1 cell line” value (THP-1) was “negligible cytotoxicity”. The “Reduction of parasitaemia” value ([9]; dosed orally and subcutaneously) was “reduce parasitaemia significantly”, the “Parasitaemia after 4 days of administration” value ([9]; 50 mg/kg bw) was 0.12% and the “Parasitaemia after 4 days of administration” value ([9]; 100 mg/kg bw) was 0.19%. The Parasitaemia ([9]; 10 mg/kg bw for 4 days) was 6.5% and the Parasitaemia ([9]; 50 mg/kg bw for 4 days) was 2.57%.

— publication PMC7549214 (Malaria Journal, 2020)
